“And” between values parts separate entries of the source, which are not always exact repeats. Identical values can stand only once.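 Growth conditions: 96-well plates. Treatment: test compound, 48 hours, 5 concentrations. Analysis: linear interpolation between bracketing concentrations; unreached endpoints set to highest concentration. GI50 marks 50% less growth. TGI is the concentration that stops growth completely.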
Experiments:
Experiment in all cases: NCI-60 cell line screen, 48 h
[1] = test system: COLO 205 colon
[2] = test system: HL-60(TB) leukemia
[3] = test system: M14 melanoma
[4] = test system: SF-539 CNS
[5] = test system: NCI-H522 lung
[6] = test system: A549 NSCLC
[7] = test system: SK-OV-3 ovarian
[8] = test system: 786-0 renal
[9] = test system: NCI/ADR-RES ovarian
[10] = test system: HS 578T breast

SMILES | TGI [1] [µM] | TGI [2] | TGI [3] [µM] | TGI [4] [µM] | TGI [5] [µM] | TGI [6] [µM] | TGI [7] [µM] | TGI [8] [µM] | GI50 [9] | GI50 [1] [µM] | GI50 [2] | GI50 [3] | GI50 [4] [µM] | GI50 [6] [µM] | GI50 [7] [µM] | GI50 [8] [µM] | TGI [9] [µM] | GI50 [5] [µM] | GI50 [10] [µM] | TGI [10] [µM]
COc1ccc(C)cc1-c1ccc(-c2cc(C)ccc2OC)o1 | > 100 | > 100 µM | > 100 | > 100 | > 100 | > 100 | > 100 | > 100 |  |  |  |  |  |  |  |  |  |  |  | 
N/N=C1\C(=O)N(c2ccc(Cl)c(Cl)c2)C(=O)C1C(=O)Nc1ccc(Cl)c(Cl)c1 (stereo not given) |  | > 100 µM | > 100 | > 100 | > 100 | > 100 |  | > 100 |  |  |  |  |  |  |  |  |  |  |  | 
CC1(C)CCOC(Sc2ccccc2)C1 (stereo not given) | > 100 | 34.4 µM | > 100 |  | > 100 | > 100 | > 100 | > 100 |  |  |  |  |  |  |  |  |  |  |  | 
COc1ccc(C2=NC(CO)[C@H](c3ccccc3)O2)cc1OC (stereo not given in full) | > 100 | > 100 µM | > 100 | > 100 | > 100 | > 100 | > 100 | > 100 |  |  |  |  |  |  |  |  |  |  |  | 
CC(C)C[C@H](NC(=O)[C@@H](N)Cc1cccc2ccccc12)B(O)O |  | 50 µM and > 100 µM |  |  | 0.741 |  |  |  | 1.39 µM and 0.183 µM | 1.92 | 0.0789 µM and 0.0291 µM | 0.206 µM and 0.0374 µM | 0.178 | 0.926 | 2 | 0.207 |  |  |  | 
COc1ccc(/C(=N/O)c2cc(F)c(F)c(OC)c2F)cc1O | 25.6 |  | > 100 | 5.27 | 3.3 | > 100 | > 100 | > 100 | 0.309 µM | 5.46 |  | 0.344 µM | 0.427 | 1.06 | 0.523 | 10.5 | 19.1 | 0.259 | 0.938 | > 100
Oc1ccc(Br)cc1C=Nc1ccc(Oc2ccc(N=Cc3cc(Br)ccc3O)cc2)cc1 | > 19.6 | > 19.6 µM | > 19.6 | > 19.6 | > 19.6 | > 19.6 | > 19.6 | > 19.6 |  |  |  |  |  |  |  |  |  |  |  | 
CC[P+](C)(C)CC | > 100 | > 100 µM | > 100 | > 100 |  | > 100 | > 100 | > 100 |  |  |  |  |  |  |  |  |  |  |  | 
Cc1c(C(=O)Nc2ccc(Oc3ccnc4cc(OCC(C)(C)O)ccc34)c(F)c2)c(=O)n(-c2ccccc2)n1C | > 100 |  | > 100 | > 100 | > 100 |  | > 100 | > 100 |  | 2.81 |  | 2.47 µM | 1.46 |  | 6.46 | 5.2 |  | 8.43 | 3.04 | > 100
O=C1OC(=O)c2c1cc1cc3c(cc1c2-c1ccc2c(c1)OCO2)OCO3 | > 100 | > 100 µM | > 100 | > 100 | > 100 | > 100 |  | 48.1 |  |  |  |  |  |  |  |  | > 100 |  |  | 
O=C(N/N=C/c1coc2ccc(Cl)cc2c1=O)c1cc(O)c(O)c(O)c1 | > 100 |  | 47 | 62.7 | > 100 | > 100 | > 100 | 66 | 17.8 µM | 55.7 |  | 19.3 µM | 23.6 | 31.4 | > 100 | 23.4 | 50.2 | 38.4 | 18.3 | 73.3
CC1Nc2ccccc2NC1C=C(C#N)C#N (stereo not given) | 34.4 | 4.69 µM | 25.7 | 26 | 25.3 | 54.1 | 52.6 | 29.6 |  |  |  |  |  |  |  |  |  |  |  | 
O=C1CC[C@@H]2[C@H]3CCC(=O)c4c3c(c3cccc(O)c3c4O)O[C@@]23C(=O)c2cccc(O)c2C(O)=C13 | > 100 | > 100 µM |  | > 100 | > 100 | > 100 |  | > 100 | > 100 µM | > 100 | > 100 µM |  | > 100 | > 100 |  | > 100 | > 100 | > 100 | > 100 | > 100
O=C1/C(=C/c2ccccc2)CN(C(=O)/C=C/c2ccccc2)C/C1=C\c1ccccc1 | 19.4 | 16.4 µM | 12.8 | 24.8 | 27.7 | 37.2 | 57.9 | 8.27 |  |  |  |  |  |  |  |  |  |  |  | > 100
Cc1ccccc1-c1cc(=O)c2cc(C)c(C)c(C(=O)O)c2o1 | > 100 | > 100 µM | > 100 | > 100 | > 100 | > 100 | > 100 | > 100 |  |  |  |  |  |  |  |  |  |  |  | 
NNC(=S)N/N=C(\c1nc2ccc(Cl)cc2[nH]c1=O)C(O)c1cccc([N+](=O)[O-])c1 (stereo not given) | > 58.4 | > 94.3 µM | > 88 | > 47.5 | > 100 | > 100 | > 100 | > 62.5 |  |  |  |  |  |  |  |  |  |  |  | 
COC(=O)c1cc2c3cc(Cl)ccc3[nH]c2c2ncccc12 | > 100 | > 100 µM |  | > 100 | > 100 | > 100 | > 100 | > 100 | > 100 µM | > 100 | > 100 µM |  | 51.8 | > 100 | > 100 | > 100 | > 100 | > 100 |  | 
O=C1CC2=CCCC2O1 (stereo not given) | > 100 | > 100 µM | > 100 | > 100 | > 100 | > 100 | > 100 | > 100 |  |  |  |  |  |  |  |  |  |  |  | 
CN(C)Cc1nsc(N(C)C)n1 | > 100 |  | > 100 | > 100 | > 100 | > 100 | > 100 | > 100 |  |  |  |  |  |  |  |  | > 100 |  |  | > 100
CC(C)(C)c1ccc(OCCCCCCCN2CCNCC2)cc1 | 3.24 | 3.3 µM | 3.02 |  |  | 3.6 | 3.92 | 3.07 | 2.46 µM | 1.49 | 1.45 µM | 1.55 µM |  | 1.72 | 1.82 | 1.63 | 6.94 |  | 1.92 | 4.77
